Source: PubChem BioAssay (NCI)
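Protocol summary: plate cells (96-well), add compound at 5 concentrations, incubate 48 h, interpolate endpoints linearly. TGI denotes the concentration required for complete inhibition of growth.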

What was measured:
Test in all cases: NCI anticancer screen, dose series, 48 h
NCI/ADR-RES ovarian = tested on: NCI/ADR-RES ovarian
MDA-MB-231 breast = tested on: MDA-MB-231 breast
T-47D breast = tested on: T-47D breast
SW-620 colon = tested on: SW-620 colon
786-0 renal = tested on: 786-0 renal
EKVX NSCLC = tested on: EKVX NSCLC
UO-31 renal = tested on: UO-31 renal
MOLT-4 leukemia = tested on: MOLT-4 leukemia
SK-MEL-5 melanoma = tested on: SK-MEL-5 melanoma
SF-268 CNS = tested on: SF-268 CNS
OVCAR-5 ovarian = tested on: OVCAR-5 ovarian
UACC-257 melanoma = tested on: UACC-257 melanoma
SN12C renal = tested on: SN12C renal
HOP-62 NSCLC = tested on: HOP-62 NSCLC
PC-3 prostate = tested on: PC-3 prostate
HOP-92 NSCLC = tested on: HOP-92 NSCLC
HS 578T breast = tested on: HS 578T breast
SNB-19 CNS = tested on: SNB-19 CNS
U251 CNS = tested on: U251 CNS
NCI-H522 lung = tested on: NCI-H522 lung
RPMI-8226 leukemia = tested on: RPMI-8226 leukemia
BT-549 breast = tested on: BT-549 breast
HCT-116 colon = tested on: HCT-116 colon
NCI-H23 lung = tested on: NCI-H23 lung
CAKI-1 renal = tested on: CAKI-1 renal
SF-295 CNS = tested on: SF-295 CNS
COLO 205 colon = tested on: COLO 205 colon
MDA-MB-435 = tested on: MDA-MB-435
UACC-62 melanoma = tested on: UACC-62 melanoma
SK-MEL-28 melanoma = tested on: SK-MEL-28 melanoma
M14 melanoma = tested on: M14 melanoma
A549 NSCLC = tested on: A549 NSCLC
CCRF-CEM leukemia = tested on: CCRF-CEM leukemia
IGROV1 ovarian = tested on: IGROV1 ovarian
NCI-H226 lung = tested on: NCI-H226 lung
KM12 colon = tested on: KM12 colon
OVCAR-3 ovarian = tested on: OVCAR-3 ovarian
SK-MEL-2 melanoma = tested on: SK-MEL-2 melanoma
HCT-15 colon = tested on: HCT-15 colon
HL-60(TB) leukemia = tested on: HL-60(TB) leukemia
MALME-3M melanoma = tested on: MALME-3M melanoma
LOX IMVI melanoma = tested on: LOX IMVI melanoma
OVCAR-4 ovarian = tested on: OVCAR-4 ovarian
TK-10 renal = tested on: TK-10 renal
MDA-N = tested on: MDA-N
K-562 leukemia = tested on: K-562 leukemia
HT29 colon = tested on: HT29 colon
NCI-H460 lung = tested on: NCI-H460 lung
DU-145 prostate = tested on: DU-145 prostate
OVCAR-8 ovarian = tested on: OVCAR-8 ovarian
MCF7 breast = tested on: MCF7 breast
SF-539 CNS = tested on: SF-539 CNS
SK-OV-3 ovarian = tested on: SK-OV-3 ovarian
HCC-2998 colon = tested on: HCC-2998 colon
ACHN renal = tested on: ACHN renal
RXF 393 renal = tested on: RXF 393 renal
SR leukemia = tested on: SR leukemia
SNB-75 CNS = tested on: SNB-75 CNS
A498 renal = tested on: A498 renal

Measured: TGI

CC(C)=NN/C(=N\S(=O)(=O)c1cc(Cl)c(Oc2ccc([N+](=O)[O-])cc2Cl)c(Cl)c1)Nc1ccc(Cl)cc1
not listed: SF-539 CNS | SK-OV-3 ovarian | HCC-2998 colon | ACHN renal | RXF 393 renal | SR leukemia | SNB-75 CNS | A498 renal
> 100 µM: all other assays above

CCC1=C(C)C2=NC1=CC1=NC(=C(CC)/C1=C/O)C=C1N=C3C(=C1C)C(=O)C(C(=O)OC)C3=C1NC(=C2)C(C)C1CCC(=O)OC (centres undefined)
not listed: NCI/ADR-RES ovarian
> 100 µM: all other assays above
